{"source": "ChEMBL document CHEMBL1201862", "about": "“PubChem BioAssay data set” (2004)", "biological_target": "T1, Exodeoxyribonuclease V (Escherichia coli (strain K12), UniProt P04993+P07648+P08394)", "T1 sequence (P04993 whole entry)": "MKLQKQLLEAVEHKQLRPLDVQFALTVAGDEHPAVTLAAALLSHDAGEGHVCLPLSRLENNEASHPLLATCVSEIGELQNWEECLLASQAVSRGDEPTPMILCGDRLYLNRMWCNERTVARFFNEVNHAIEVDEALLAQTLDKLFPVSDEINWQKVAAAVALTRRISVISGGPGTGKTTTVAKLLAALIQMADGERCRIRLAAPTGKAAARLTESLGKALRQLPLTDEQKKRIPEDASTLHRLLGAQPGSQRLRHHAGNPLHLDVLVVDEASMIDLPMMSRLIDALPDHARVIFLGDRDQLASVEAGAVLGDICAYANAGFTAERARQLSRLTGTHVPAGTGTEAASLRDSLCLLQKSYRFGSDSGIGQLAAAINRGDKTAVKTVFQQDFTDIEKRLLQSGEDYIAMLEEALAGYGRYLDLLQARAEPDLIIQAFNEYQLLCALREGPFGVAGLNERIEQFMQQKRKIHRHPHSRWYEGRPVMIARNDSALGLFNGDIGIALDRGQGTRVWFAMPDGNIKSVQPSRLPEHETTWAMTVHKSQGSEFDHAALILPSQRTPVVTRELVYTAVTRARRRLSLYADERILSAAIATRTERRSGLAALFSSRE", "T1 sequence (P07648 whole entry)": "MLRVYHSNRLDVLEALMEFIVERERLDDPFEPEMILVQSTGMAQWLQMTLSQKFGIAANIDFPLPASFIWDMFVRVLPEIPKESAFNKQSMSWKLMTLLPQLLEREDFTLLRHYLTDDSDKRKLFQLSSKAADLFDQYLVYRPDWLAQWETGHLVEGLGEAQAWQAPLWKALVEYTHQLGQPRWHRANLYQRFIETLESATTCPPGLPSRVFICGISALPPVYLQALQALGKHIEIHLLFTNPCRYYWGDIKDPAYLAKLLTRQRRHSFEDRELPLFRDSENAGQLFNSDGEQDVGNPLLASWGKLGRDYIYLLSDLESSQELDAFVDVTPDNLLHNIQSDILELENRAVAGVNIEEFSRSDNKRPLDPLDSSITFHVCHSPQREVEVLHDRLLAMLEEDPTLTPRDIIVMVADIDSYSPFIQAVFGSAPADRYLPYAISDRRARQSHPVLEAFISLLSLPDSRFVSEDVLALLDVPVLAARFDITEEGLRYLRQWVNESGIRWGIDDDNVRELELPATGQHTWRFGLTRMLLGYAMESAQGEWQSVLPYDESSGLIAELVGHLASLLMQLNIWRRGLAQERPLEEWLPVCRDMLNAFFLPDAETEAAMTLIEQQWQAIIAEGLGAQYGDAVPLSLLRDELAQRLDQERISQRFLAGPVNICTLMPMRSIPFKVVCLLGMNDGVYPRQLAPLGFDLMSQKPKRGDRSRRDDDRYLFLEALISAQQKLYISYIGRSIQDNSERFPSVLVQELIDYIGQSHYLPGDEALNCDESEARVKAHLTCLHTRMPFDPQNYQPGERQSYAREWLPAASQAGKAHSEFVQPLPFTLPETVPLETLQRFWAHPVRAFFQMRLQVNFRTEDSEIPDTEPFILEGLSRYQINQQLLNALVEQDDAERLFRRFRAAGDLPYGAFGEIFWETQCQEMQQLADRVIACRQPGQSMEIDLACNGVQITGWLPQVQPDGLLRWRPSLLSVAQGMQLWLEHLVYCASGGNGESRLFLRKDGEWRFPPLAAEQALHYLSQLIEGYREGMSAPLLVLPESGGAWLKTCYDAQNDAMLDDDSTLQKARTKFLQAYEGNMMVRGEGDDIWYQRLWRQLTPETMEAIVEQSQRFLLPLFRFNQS", "T1 sequence (P08394 whole entry)": "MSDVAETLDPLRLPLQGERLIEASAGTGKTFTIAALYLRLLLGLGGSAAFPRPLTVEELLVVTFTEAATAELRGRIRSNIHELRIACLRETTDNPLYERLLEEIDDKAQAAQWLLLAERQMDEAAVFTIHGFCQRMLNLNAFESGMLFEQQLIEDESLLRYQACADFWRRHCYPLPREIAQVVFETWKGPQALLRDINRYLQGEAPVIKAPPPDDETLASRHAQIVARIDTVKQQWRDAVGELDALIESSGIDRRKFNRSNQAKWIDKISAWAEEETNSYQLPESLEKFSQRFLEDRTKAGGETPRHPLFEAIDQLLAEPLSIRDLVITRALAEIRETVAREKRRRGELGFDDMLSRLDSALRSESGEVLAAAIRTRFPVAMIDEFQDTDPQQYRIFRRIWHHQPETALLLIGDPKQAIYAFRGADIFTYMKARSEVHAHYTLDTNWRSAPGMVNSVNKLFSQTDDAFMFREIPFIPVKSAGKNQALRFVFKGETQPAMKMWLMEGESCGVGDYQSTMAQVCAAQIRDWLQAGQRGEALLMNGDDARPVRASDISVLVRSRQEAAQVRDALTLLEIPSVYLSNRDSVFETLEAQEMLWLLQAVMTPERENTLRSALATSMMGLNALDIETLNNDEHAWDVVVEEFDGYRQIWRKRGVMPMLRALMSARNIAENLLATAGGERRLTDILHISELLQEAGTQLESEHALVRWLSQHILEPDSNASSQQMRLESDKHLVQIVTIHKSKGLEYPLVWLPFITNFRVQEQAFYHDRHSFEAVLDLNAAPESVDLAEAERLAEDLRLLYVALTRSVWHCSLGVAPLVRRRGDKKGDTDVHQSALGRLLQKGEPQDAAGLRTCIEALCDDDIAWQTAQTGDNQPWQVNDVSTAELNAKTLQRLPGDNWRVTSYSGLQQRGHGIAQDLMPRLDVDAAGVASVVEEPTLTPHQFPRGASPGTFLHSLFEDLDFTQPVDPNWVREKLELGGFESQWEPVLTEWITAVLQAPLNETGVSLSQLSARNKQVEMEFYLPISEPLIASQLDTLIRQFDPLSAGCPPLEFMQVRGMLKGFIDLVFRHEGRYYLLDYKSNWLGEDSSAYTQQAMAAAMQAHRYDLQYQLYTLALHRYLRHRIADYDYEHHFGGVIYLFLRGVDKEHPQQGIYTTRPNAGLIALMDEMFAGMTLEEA", "test": "RecBCD inhibition via phage-restricted bacterial growth – absorbance, V66 E. coli, mutant T4 phage, counter-screen for AddAB inhibitor project, dose response (AID 492957)", "assay_type": "functional, cell-based, Escherichia coli str. K-12 substr. MG1655", "note": "Calls of active or inactive are those of the source. The rule behind the calls is not given here.", "data": [{"smiles": "O=[N+]([O-])c1ccc(N/N=C/c2ccc[nH]2)cc1", "values": [{"measurement": "IC50", "result": "> 119 µM (inactive)"}]}]}
